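Cells were grown in 96-well plates and exposed to each compound for 48 hours at five concentrations; endpoints were interpolated linearly between bracketing concentrations, or set to the highest concentration if not reached. GI50 marks 50% less growth.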 Calls of active or inactive are those of the source. Rule as the data show it: active = GI50 up to about 1.1 µM and inactive = higher.
How the values were obtained:
Test in all cases: growth of human tumour cells (NCI), 48 h
NCI-H460 = system: NCI-H460
NCI/ADR-RES = system: NCI/ADR-RES
ACHN = system: ACHN
786-0 = system: 786-0
SK-MEL-2 = system: SK-MEL-2
RXF 393 = system: RXF 393
HOP-92 = system: HOP-92
Malme-3M = system: Malme-3M
K562 = system: K562
NCI-H522 = system: NCI-H522
SNB-75 = system: SNB-75
SF-539 = system: SF-539
SW-620 = system: SW-620
MDA-MB-435 = system: MDA-MB-435
RPMI-8226 = system: RPMI-8226
SF-268 = system: SF-268
KM12 = system: KM12
MDA-MB-231 = system: MDA-MB-231
SK-MEL-28 = system: SK-MEL-28
HL-60 = system: HL-60
T47D = system: T47D
HT-29 = system: HT-29
UO-31 = system: UO-31
IGROV-1 = system: IGROV-1
U-251 = system: U-251
DU-145 = system: DU-145
OVCAR-4 = system: OVCAR-4
MOLT-4 = system: MOLT-4
A549 = system: A549
SK-MEL-5 = system: SK-MEL-5
LOX IMVI = system: LOX IMVI
MDA-N = system: MDA-N
SK-OV-3 = system: SK-OV-3
SNB-19 = system: SNB-19
Hs-578T = system: Hs-578T
UACC-257 = system: UACC-257
HCT-15 = system: HCT-15
OVCAR-3 = system: OVCAR-3
PC-3 = system: PC-3
HCC 2998 = system: HCC 2998
A498 = system: A498
EKVX = system: EKVX
SF-295 = system: SF-295
SN12C = system: SN12C
NCI-H226 = system: NCI-H226
CAKI-1 = system: CAKI-1
HCT-116 = system: HCT-116
BT-549 = system: BT-549
MCF7 = system: MCF7
M14 = system: M14
COLO 205 = system: COLO 205
NCI-H23 = system: NCI-H23
OVCAR-8 = system: OVCAR-8
OVCAR-5 = system: OVCAR-5
UACC-62 = system: UACC-62
SR = system: SR

Compound: CCOC(=O)C1=C(N)N2C(=N[C@H]3CCCC[C@@H]32)N=C1
- GI50 (NCI-H460): > 100 µM (inactive)
- GI50 (NCI/ADR-RES): > 100 µM (inactive)
- GI50 (ACHN): > 100 µM (inactive)
- GI50 (786-0): > 100 µM (inactive)
- GI50 (SK-MEL-2): > 100 µM (inactive)
- GI50 (RXF 393): > 100 µM (inactive)
- GI50 (HOP-92): > 100 µM (inactive)
- GI50 (Malme-3M): > 100 µM (inactive)
- GI50 (K562): > 100 µM (inactive)
- GI50 (NCI-H522): > 100 µM (inactive)
- GI50 (SNB-75): 38.3 µM (inactive)
- GI50 (SF-539): > 100 µM (inactive)
- GI50 (SW-620): > 100 µM (inactive)
- GI50 (MDA-MB-435): > 100 µM (inactive)
- GI50 (RPMI-8226): > 100 µM (inactive)
- GI50 (SF-268): > 100 µM (inactive)
- GI50 (KM12): > 100 µM (inactive)
- GI50 (MDA-MB-231): > 100 µM (inactive)
- GI50 (SK-MEL-28): > 100 µM (inactive)
- GI50 (HL-60): > 100 µM (inactive)
- GI50 (T47D): > 100 µM (inactive)
- GI50 (HT-29): > 100 µM (inactive)
- GI50 (UO-31): > 100 µM (inactive)
- GI50 (IGROV-1): > 100 µM (inactive)
- GI50 (U-251): > 100 µM (inactive)
- GI50 (DU-145): > 100 µM (inactive)
- GI50 (OVCAR-4): 37 µM (inactive)
- GI50 (MOLT-4): > 100 µM (inactive)
- GI50 (A549): > 100 µM (inactive)
- GI50 (SK-MEL-5): > 100 µM (inactive)
- GI50 (LOX IMVI): > 100 µM (inactive)
- GI50 (MDA-N): > 100 µM (inactive)
- GI50 (SK-OV-3): > 100 µM (inactive)
- GI50 (SNB-19): > 100 µM (inactive)
- GI50 (Hs-578T): > 100 µM (inactive)
- GI50 (UACC-257): > 100 µM (inactive)
- GI50 (HCT-15): > 100 µM
- GI50 (OVCAR-3): > 100 µM (inactive)
- GI50 (PC-3): > 100 µM (inactive)
- GI50 (HCC 2998): > 100 µM (inactive)
- GI50 (A498): > 100 µM (inactive)
- GI50 (EKVX): > 100 µM (inactive)
- GI50 (SF-295): > 100 µM (inactive)
- GI50 (SN12C): > 100 µM (inactive)
- GI50 (NCI-H226): 73.6 µM (inactive)
- GI50 (CAKI-1): > 100 µM (inactive)
- GI50 (HCT-116): > 100 µM (inactive)
- GI50 (BT-549): > 100 µM (inactive)
- GI50 (MCF7): > 100 µM (inactive)
- GI50 (M14): > 100 µM (inactive)
- GI50 (COLO 205): > 100 µM (inactive)
- GI50 (NCI-H23): > 100 µM (inactive)
- GI50 (OVCAR-8): > 100 µM (inactive)
- GI50 (OVCAR-5): > 100 µM (inactive)
- GI50 (UACC-62): > 100 µM (inactive)
- GI50 (SR): > 100 µM (inactive)

— ChEMBL document CHEMBL1201862, “PubChem BioAssay data set” (2004)
